The test system of one data set is Cunninghamella strains. Kind of data set: Cunninghamella biotransformation assay, three strains together and blank without fungus. The class given is in vitro ADME. The conditions noted are these: blank: control in the absence of fungus, 7-day incubation. How it is done:
(§1) Three different strains of Cunninghamella were used: Cunninghamella echinulata NRRL 1384, Cunninghamella blakesleeana 1908 DMS, and Cunninghamella elegans 1906 DMS. The first was provided by Dr. A.J. Carnell (University of Liverpool, UK), whereas the two remaining were purchased from Deutsche Sammlung von Mikroorganismen und Zellkulturen GmbH (DMSZ, Braunschweig, Germany).
(§2) Cunninghamella strains were cultivated on solid potato dextrose agar (PDA) plates at 28 °C. After 4 days, a liquid fermentation basal medium was prepared by the addition of 6 g of D-glucose, 1.5 g of NaCl, 1.5 g of yeast extract from Saccharomyces cerevisiae, and 1.5 g of K2HPO4 to 300 mL of distilled water. Aliquots of 24.5 mL of medium were inoculated with 300 μL of suspension of fungal spores obtained after wetting colonies in PDA. The fungi were incubated with shaking until the formation of spherical clumps.
(§3) Compounds 2–4 were evaluated in this experiment. Once microorganisms formed spherical clumps in the preliminary incubation, the corresponding tested compound was added to the broth and the mixture was incubated for 7 days. Two control experiments were also performed, in the absence of compound and fungus, respectively. Biotransformation progress was monitored by TLC and by liquid chromatography electrospray ionization-tandem mass spectrometry (LC-MS/MS). Monitoring was performed at four different incubation times: 30 min, 3 days, 5 days, and 7 days.
(§4) To analyze metabolites in LC-MS/MS, an aliquot of 500 μL of filtered sample was taken and extracted with 500 μL of dichloromethane. The organic fraction was dried with sodium sulfate, filtered, and evaporated. The obtained residue was analyzed in LC-MS/MS. At the end of experiment, all the remaining medium was extracted with 25 mL of dichloromethane after separating the fungal clumps by filtration over cellulose filters.
Agilent 1100 HPLC system (Agilent Technologies, Waldbronn, Germany) equipped with a Xbridge™ C18 analytical column (2.1 × 30 mm, […]; Waters, Dublin, Ireland) was used in the chromatographic separation of LC-MS/MS analysis. […]

Data set [1] has as its system Vibrio harveyi BB7. The conditions noted are these: BB7, 40 ng/mL; for MI (mutagenicity index): mutagenic if MI above 2.0; for Number of revertants per plate, Mean ± SD: mutagenicity. How it is done: (§5) From them, 0.2 mM working solutions were prepared by dilution with water. […] Working solutions were prepared by 1:100 dilution of stock solution in water, and final compound concentration assayed was 40 ng/mL.
(§6) Four Vibrio harveyi strains were used in this study: a wild-type BB7 (naturally found in the Baltic Sea) and three genetically modified strains, namely BB7M (obtained by the introduction of pAB1273 plasmid containing the genes mucA and mucB to enhance the error-prone DNA repair), BB7X (hypersensitive to UV radiation after genetic modification with Tn5TpMCS), and BB7XM (containing the two abovementioned modifications). These strains were kindly provided by Prof. G. Węgrzyn (Department of Molecular Biology, University of Gdańsk, Poland).
(§7) It causes point mutations at the genome as it induces G:C → A:T transitions in Vibrio harveyi strains and in other bacteria such as Escherichia coli and S. typhimurium. […] Next, its working solution was prepared in sterile water, being 40 ng/mL its final concentration.
(§8) To perform the V. harveyi mutagenicity test, 10 μL of a working solution of the tested compound (100 μg/mL) were added to V. harveyi bacterial culture (OD600 = 0.1) in NaCl-containing BOSS liquid medium, being 40 ng/mL the final concentration of the tested compound. […] Then, an inoculum containing 5 × 10^6 cells was added to solid BOSS agar plate supplemented with neomycin sulfate at a final concentration of 100 μg/mL. Samples were left incubating 48 h at 30 °C, and revertant colonies were counted manually.

The test system of the next data set is Vibrio harveyi BB7M. Particulars: 40 ng/mL; for Number of revertants per plate, Mean ± SD: mutagenicity. How it is done:
as §5, §6, §7, §8

Data set [2] has as its system Vibrio harveyi BB7X. Particulars: 40 ng/mL; for MI (mutagenicity index): mutagenic if MI above 2.0; for Number of revertants per plate, Mean ± SD: mutagenicity. The method, then:
as §5, §6, §7, §8

The test system of data set [3] is Vibrio harveyi BB7X. Kind of data set: Vibrio harveyi antimutagenicity assay against NQNO, BB7X. Type of data set: cell-based. Particulars: compound 40 ng/mL + NQNO 40 ng/mL; for Number of revertants per plate, Mean ± SD: antimutagenicity, NQNO line = NQNO as a single compound.
Text: as §6, §7
(§9) Procedure followed in the V. harveyi antimutagenicity assay was similar to the mutagenicity method described before. […] The results were expressed as the inhibition percentage of mutagenic effect, which was calculated with the formula: 100 − [(R 1/R 2) × 100], where R 1 is the number of revertants per plate in the presence of both mutagen and tested substance, and R 2 is the number of revertants per plate in the presence of mutagen. […] S. typhimurium antimutagenicity assay was based on similar assumptions as the V. harveyi antimutagenicity test. In this case, the chemopreventive activity was determined at two concentrations of a tested compounds and a standard mutagen, i.e., 40 and 500 ng/mL.

The test system of data set [4] is Salmonella typhimurium TA100. Kind of data set: Ames mutagenicity test. The class given is cell-based. The method, then:
From them, 0.2 mM working solutions were prepared by dilution with water. […]
In the Ames test, Salmonella typhimurium TA100 strain was used. This strain has a base-pair substitution that can be reverted by mutations at GC pairs. In addition, it contains mutations at uvrB-bio and rfa genes to eliminate excision repair mechanisms and to make the bacteria more permeable to chemicals, respectively. Finally, TA100 also includes pKM101 plasmid, which enhances both chemical and UV-induced mutagenesis via an increase in the error-prone recombinational DNA repair pathway. TA100 strain of S. typhimurium was provided by Dr. T. Nohmi (Division of Genetics and Mutagenesis, National Institute of Hygienic Sciences, Tokyo, Japan). V. harveyi and S. typhimurium bacterial cultures were maintained at 30 and 37 °C, respectively.
It causes point mutations at the genome as it induces G:C → A:T transitions in Vibrio harveyi strains and in other bacteria such as Escherichia coli and S. typhimurium. […]
S. typhimurium was cultivated in a fresh medium 12 h prior to a test. To perform mutagenicity assay, 100 μL of an overnight culture (containing approx. 1 × 10^8 to 2 × 10^8 bacteria) were inoculated along with 50 μL of a tested compound in 2 mL of top agar supplemented with traces of histidine and of biotin. Then the mixture was added over the surface of GM agar plates and was left incubating 48 h at 37 °C. Afterwards, the colonies were counted manually.

Data set [5] concerns Cunninghamella echinulata NRRL 1384. Kind of data set: Cunninghamella biotransformation assay, C. echinulata. The class given is in vitro ADME. The conditions noted are these: 7-day incubation; for % of compound/metabolite in C. echinulata: 0.5 mg/mL, LC-MS/MS; for % of tested (parental) compound metabolized at the end of experiment: C. echinulata. The method, then: as §1, §2, §3, §4
Agilent 1100 HPLC system (Agilent Technologies, Waldbronn, Germany) equipped with a Xbridge™ C18 analytical column (2.1 × 30 mm, […]; Waters, Dublin, Ireland) was used in the chromatographic separation of LC-MS/MS analysis. An elution gradient of acetonitrile and water, with 0.1% of formic acid, was used as a mobile phase. MS spectra were taken at Applied Biosystems MDS Sciex API 200 triple quadrupole mass analyzer (Concord, Ontario, Canada) with an electrospray ionization (ESI) interface between HPLC and MS.

Data set [6] deals with Vibrio harveyi BB7. As to the kind of experiment: Vibrio harveyi antimutagenicity assay against NQNO, BB7. Particulars: for % inhibition of NQNO mutagenicity / Number of revertants per plate, Mean ± SD: BB7, compound 40 ng/mL + NQNO 40 ng/mL; for Number of revertants per plate, Mean ± SD: antimutagenicity, NQNO line = NQNO as a single compound; for chemopreventive (antimutagenic) effect, class: wild BB7 strain, against NQNO. The class given is cell-based.
Text: as §6, §7, §9

Setting [7] is: TA100, 40 ng/mL, mutagenic if MI >2.0.
[8] abbreviates: TA100, 500 ng/mL (NQNO control stated as 40 ng/mL in method).

Read-outs that look alike come from different tables or passages of the source.

Turning to `COc1nc2c(c(=O)n(C)c(=O)n2C)n1CCCC(=O)NCc1ccccc1` [Compound 3, N-benzyl-4-(8-methoxy-1,3-dimethyl-2,6-dioxo-purin-7-yl)butanamide], the “% of compound/metabolite in blank” value with Cunninghamella strains amounted to 100.0%. For the same molecule, the “MI (mutagenicity index)” value in the data set on Vibrio harveyi BB7 [1] is on record as 1.4; with Vibrio harveyi BB7M (mutagenic if MI above 2.0), 1.3; with Vibrio harveyi BB7X [2] it was 1.6; in data set [4] (setting [7]) it was 1.5; in data set [4] (setting [8]), 0.2. Further, the “Number of revertants per plate, Mean ± SD” value in the data set with Vibrio harveyi BB7 [1] stood at 18 ± 6; in the data set on Vibrio harveyi BB7M, 35 ± 5; in the data set with Vibrio harveyi BB7X [2] it was 35 ± 4; in the data set on Vibrio harveyi BB7X [3], 45 ± 9; in data set [4] (TA100, 40 ng/mL) it was 53 ± 11; in data set [4] (setting [8]), 6 ± 3. Further, in the data set on Vibrio harveyi BB7 [6], the “Number of revertants per plate, Mean ± SD” value is 38 ± 9. The “% inhibition of NQNO mutagenicity” value came to 58% with Vibrio harveyi BB7X [3] and 29% in the data set on Vibrio harveyi BB7 [6]. For the same molecule, the “% of compound/metabolite in C. echinulata” value in data set [5] is reported as 92.4%. Further, in data set [5], the “% of tested (parental) compound metabolized at the end of experiment” value was found to be 7.6%. Also, the “chemopreventive (antimutagenic) effect, class” value in the data set with Vibrio harveyi BB7 [6] is listed as “moderate or a close to moderate”.
As for `COc1nc2c(c(=O)n(C)c(=O)n2C)n1CCCC(=O)N1CCN(c2ccccc2)CC1` [Compound 4, 8-methoxy-1,3-dimethyl-7-[4-oxo-4-(4-phenylpiperazin-1-yl)butyl]purine-2,6-dione], the “% of compound/metabolite in blank” value in the data set with Cunninghamella strains worked out at 100.0%. The “MI (mutagenicity index)” value in the data set with Vibrio harveyi BB7 [1] worked out at 0.8; in the data set with Vibrio harveyi BB7X [2] it was 1.2; in data set [4] (setting [7]), 1.3; in data set [4] (setting [8]), 0.4. The “Number of revertants per plate, Mean ± SD” value is recorded as 10 ± 4 in the data set with Vibrio harveyi BB7 [1]; 42 ± 11 in the data set on Vibrio harveyi BB7M; 27 ± 7 with Vibrio harveyi BB7X [2]; 47 ± 10 in the data set on Vibrio harveyi BB7X [3]; 48 ± 7 in data set [4] (TA100, 40 ng/mL); 10 ± 1 in data set [4] (setting [8]). For the same molecule, the “Number of revertants per plate, Mean ± SD” value with Vibrio harveyi BB7 [6] is 26 ± 6. Also, the “% inhibition of NQNO mutagenicity” value is reported as 56% in the data set with Vibrio harveyi BB7X [3] and 53% in the data set with Vibrio harveyi BB7 [6]. Besides, in data set [5], the “% of compound/metabolite in C. echinulata” value came to 12.4%. Besides, the “% of tested (parental) compound metabolized at the end of experiment” value in data set [5] was determined as 87.6%. Besides, the “chemopreventive (antimutagenic) effect, class” value in the data set with Vibrio harveyi BB7 [6] is on record as “strong (higher than 40%)”.

(Values after PMC5756575, “In Vitro Biotransformation, Safety, and Chemopreventive Action of Novel 8-Methoxy-Purine-2,6-Dione Derivatives” (Applied Biochemistry and Biotechnology, 2017).)
